Data on 56 compounds can be found in BindingDB's records for doi:10.1021/jm00164a002 (Syntex Research, 1990).

For orientation: Ki means a measure of affinity in units of concentration, obtained from inhibition or displacement. A low value points to higher affinity. What is called koff is the first-order rate constant of dissociation. A low value points to a long-lived complex. For orientation: kon means the rate constant with which the complex forms.

The assay concerns the target T1, Neutrophil elastase (Homo sapiens, UniProt P08246).
T1 sequence (P08246 whole entry): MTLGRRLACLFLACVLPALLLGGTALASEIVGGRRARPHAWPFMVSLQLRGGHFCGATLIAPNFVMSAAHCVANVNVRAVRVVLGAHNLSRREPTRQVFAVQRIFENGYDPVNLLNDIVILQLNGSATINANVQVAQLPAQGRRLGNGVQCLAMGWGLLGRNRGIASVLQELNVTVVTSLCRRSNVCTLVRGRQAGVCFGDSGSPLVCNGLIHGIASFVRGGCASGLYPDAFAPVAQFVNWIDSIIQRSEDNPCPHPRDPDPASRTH
Nature of the assay: Component deacylation rate constant for interaction with human leukocyte elastase. Conditions: for kon: read-out: kon (M-1-s-1).

Turning to `CCCC(C)Nc1nc2cccc(C)c2c(=O)o1` (configuration not stated), the affinity, expressed as Ki, was 794 nM; the koff came to 0.00371 s⁻¹; the on-rate constant (kon) was 5010 M⁻¹ s⁻¹.

Consider `COc1cc2nc(SCc3ccccc3)oc(=O)c2cc1OC`, for which the inhibition constant (Ki) came out at 2000 nM, the off-rate (koff) is 0.0123 s⁻¹ and the kon was 5750 M⁻¹ s⁻¹.

For the compound `CCSc1nc2ccc(C)cc2c(=O)o1`, the Ki came to 159 nM and the kon amounted to 1e+06 M⁻¹ s⁻¹.

As for `O=c1oc(-c2ccccc2)nc2ccccc12` [2-Phenyl-4H-3,1-benzoxazin-4-one (3)], the kon was 10000 M⁻¹ s⁻¹.

Take `COC(=O)[C@H](Cc1ccc(O)cc1)Nc1nc2ccccc2c(=O)o1`: the koff was found to be 0.000851 s⁻¹ and the kon was 1900 M⁻¹ s⁻¹.

With `CCCNc1nc2cccc(C)c2c(=O)o1` [5-Methyl-2-propylamino-benzo[d][1,3]oxazin-4-one], the affinity corresponds to a Ki of 6.31 nM, the koff amounted to 0.000339 s⁻¹ and the kon is 56200 M⁻¹ s⁻¹.

Consider `O=c1oc(C(F)(F)F)nc2ccccc12`, for which the affinity, expressed as Ki, was 159 nM and the kon amounted to 100000 M⁻¹ s⁻¹.

With `COC(=O)[C@@H](CC(C)C)Nc1nc2ccccc2c(=O)o1`, the affinity, expressed as Ki, was 39.8 nM; the off-rate (koff) was 0.00138 s⁻¹; the kon came to 39800 M⁻¹ s⁻¹.

As for `CCCNC(=O)Nc1ccc2c(=O)oc(NC(C)C)nc2c1`, the koff came out at 0.017 s⁻¹ and the kon was 12600 M⁻¹ s⁻¹.

The compound `CCCCNc1nc2ccccc2c(=O)o1` [2-Butylamino-benzo[d][1,3]oxazin-4-one] came in with a Ki of 79.4 nM.

As to `CNc1nc2cccc(C)c2c(=O)o1` [5-Methyl-2-methylamino-benzo[d][1,3]oxazin-4-one], the koff amounted to 0.151 s⁻¹ and the kon was 4900 M⁻¹ s⁻¹.

On to `CC(C)Nc1nc2cc(N(C)C)ccc2c(=O)o1`, for which the koff turned out to be 0.000479 s⁻¹ and the on-rate (kon) is 1000 M⁻¹ s⁻¹.

Turning to `CCSc1nc2cc(OC)c(OC)cc2c(=O)o1`, the kon was 100000 M⁻¹ s⁻¹.

Turning to `CCCCNc1nc2cc(N)ccc2c(=O)o1`, the koff is 0.00182 s⁻¹ and the kon was 2820 M⁻¹ s⁻¹.

Consider `CCc1cccc2c(=O)oc(NC(C)C)nc12`, for which the koff turned out to be 0.024 s⁻¹ and the kon turned out to be 24000 M⁻¹ s⁻¹.

In the case of `CC(C)CN(CC(C)C)c1nc2ccccc2c(=O)o1`, the koff is 0.000977 s⁻¹ and the kon worked out at 151 M⁻¹ s⁻¹.

Take `CCC(CC)Nc1nc2cccc(C)c2c(=O)o1`: the Ki turned out to be 794 nM, the koff amounted to 0.00562 s⁻¹ and the association rate constant (kon) amounted to 7760 M⁻¹ s⁻¹.

Regarding `CCSc1nc2c(C)cccc2c(=O)o1`, the association rate constant (kon) is 2e+06 M⁻¹ s⁻¹.

Take `CSc1nc2cccc(C)c2c(=O)o1`: the koff came out at 0.000355 s⁻¹ and the kon was found to be 251000 M⁻¹ s⁻¹.

In the case of `COc1cc2nc(SCc3c[nH]cn3)oc(=O)c2cc1OC`, the affinity corresponds to a Ki of 1000 nM, the koff was 0.00759 s⁻¹ and the kon worked out at 6920 M⁻¹ s⁻¹.

In the case of `Cc1cccc2nc(NC(C)C)oc(=O)c12` [2-Isopropylamino-5-methyl-benzo[d][1,3]oxazin-4-one], the Ki is 1.58 nM.

With `COC(=O)[C@H](CC(C)C)NC(=O)[C@H](CC(C)C)Nc1nc2cc(C)cc(C)c2c(=O)o1`, the kon is 1260 M⁻¹ s⁻¹.

For the compound `CCCCN(CCCC)c1nc2ccccc2c(=O)o1`, the Ki turned out to be 5010 nM, the off-rate (koff) is 0.00123 s⁻¹ and the kon was found to be 269 M⁻¹ s⁻¹.

Turning to `CC(C)Cc1nc2ccccc2c(=O)o1`, the kon was found to be 20000 M⁻¹ s⁻¹.

On to `Cc1cccc2c(=O)oc(NC(C)C)nc12`, for which the affinity, expressed as Ki, was 631 nM.

Consider `CCOc1nc2cc(N(C)C)ccc2c(=O)o1`, for which the koff was found to be 1.41e-05 s⁻¹ and the kon is 2880 M⁻¹ s⁻¹.

For the compound `CCCc1cccc2nc(OCC)oc(=O)c12`, the koff came out at 7.08e-05 s⁻¹ and the kon was found to be 309000 M⁻¹ s⁻¹.

For `Cc1cccc2nc(C(F)(F)F)oc(=O)c12`, affinity was put at a Ki of 31.6 nM, the koff stood at 0.00371 s⁻¹ and the kon stood at 129000 M⁻¹ s⁻¹.

With `CCOc1nc2cccc(C(Br)Br)c2c(=O)o1`, the koff was found to be 0.00468 s⁻¹ and the kon was found to be 1e+07 M⁻¹ s⁻¹.

In the case of `Cc1cc(N(C)C)cc2nc(NC(C)C)oc(=O)c12`, the koff is 0.000129 s⁻¹ and the kon turned out to be 102 M⁻¹ s⁻¹.

As for `CCCc1cc(N(C)C)cc2nc(NC(C)C)oc(=O)c12`, the koff was determined as 0.000182 s⁻¹ and the kon is 646 M⁻¹ s⁻¹.

Turning to `NC(=O)[C@H](Cc1ccccc1)Nc1nc2ccccc2c(=O)o1`, the dissociation rate constant (koff) was determined as 0.00038 s⁻¹ and the kon worked out at 1200 M⁻¹ s⁻¹.

On to `CCCNc1nc2ccccc2c(=O)o1` [2-Propylamino-benzo[d][1,3]oxazin-4-one], for which affinity was put at a Ki of 100 nM. This counts as sub-micromolar.

With `Cc1cc(N)cc2nc(NC(C)C)oc(=O)c12`, the koff is 1.78e-05 s⁻¹ and the kon stood at 229 M⁻¹ s⁻¹.

On to `O=c1oc(/C=C/c2ccccc2)nc2ccccc12`, for which the koff amounted to 0.00316 s⁻¹ and the kon is 389 M⁻¹ s⁻¹.

For `C/C=C/c1cccc2nc(OCC)oc(=O)c12`, the koff was found to be 6.61e-05 s⁻¹ and the kon came out at 347000 M⁻¹ s⁻¹.

`CCOC(=O)[C@H](C)Nc1nc2ccccc2c(=O)o1`: the Ki is 794 nM, the koff was determined as 0.00224 s⁻¹ and the kon was determined as 2570 M⁻¹ s⁻¹.

Turning to `CCC(C)CNc1nc2cccc(C)c2c(=O)o1` (configuration not stated), the koff was found to be 7.41e-05 s⁻¹ and the on-rate constant (kon) came to 112 M⁻¹ s⁻¹.

Take `NC(=O)[C@H](Cc1ccccc1)NC(=O)[C@@H]1CCCN1c1nc2ccccc2c(=O)o1`: the Ki stood at 39.8 nM, the koff was 0.000537 s⁻¹ and the kon was found to be 14400 M⁻¹ s⁻¹.

In the case of `CC(C)Nc1nc2ccccc2c(=O)o1` [2-Isopropylamino-benzo[d][1,3]oxazin-4-one], the koff was determined as 0.00309 s⁻¹ and the kon worked out at 58900 M⁻¹ s⁻¹.

`Cc1ccc2nc(C)oc(=O)c2c1` returned a Ki of 31600 nM.

In the case of `CC(C)C[C@H](NC(=O)[C@@H]1CCCN1c1nc2ccccc2c(=O)o1)C(=O)NCC(N)=O`, the koff amounted to 0.000229 s⁻¹ and the kon was found to be 11000 M⁻¹ s⁻¹.

`O=c1oc(NCCc2ccccc2)nc2ccccc12`: the Ki was determined as 1590 nM, the koff came to 0.00191 s⁻¹ and the kon turned out to be 1120 M⁻¹ s⁻¹.

Take `Cc1cc(C)c2c(=O)oc(NC(C)C)nc2c1`: the Ki worked out at 6.31 nM, the off-rate constant (koff) came out at 1.51e-05 s⁻¹ and the kon was 2570 M⁻¹ s⁻¹.

For the compound `CC(=O)NCc1nc2ccccc2c(=O)o1`, the koff came to 0.00132 s⁻¹ and the kon worked out at 174 M⁻¹ s⁻¹.

Consider `CC(C)(C)c1nc2ccccc2c(=O)o1`, for which the kon was 10000 M⁻¹ s⁻¹.

Regarding `O=c1oc(C(F)(F)C(F)(F)C(F)(F)F)nc2ccccc12`, affinity was put at a Ki of 100 nM and the kon was 10000 M⁻¹ s⁻¹.

On to `COC(=O)[C@H](CC(C)C)Nc1nc2ccccc2c(=O)o1`, for which the Ki was 159 nM, the koff was determined as 0.000389 s⁻¹ and the association rate constant (kon) is 2290 M⁻¹ s⁻¹.

For the compound `Cc1cccc2nc(OCC(C)C)oc(=O)c12`, the koff was found to be 1.12e-05 s⁻¹ and the association rate constant (kon) is 7080 M⁻¹ s⁻¹.

In the case of `CCSc1nc2ccc(NC(C)=O)cc2c(=O)o1`, affinity was put at a Ki of 1590 nM and the kon stood at 10000 M⁻¹ s⁻¹.

Take `CC(C)C[C@H](NC(=O)C1CCCN1c1nc2ccccc2c(=O)o1)C(N)=O` (some centres not stated): the koff is 0.000324 s⁻¹ and the association rate constant (kon) amounted to 15100 M⁻¹ s⁻¹.

For the compound `Cc1nc2c(N)cccc2c(=O)o1`, the kon was determined as 2000 M⁻¹ s⁻¹.

On to `CCCCNc1nc2cccc(CC)c2c(=O)o1` [2-Butylamino-5-ethyl-benzo[d][1,3]oxazin-4-one], for which the koff turned out to be 0.000537 s⁻¹ and the kon is 129000 M⁻¹ s⁻¹.

Turning to `CCSc1nc2cccc(C)c2c(=O)o1`, the koff amounted to 0.00141 s⁻¹ and the on-rate (kon) is 1.51e+06 M⁻¹ s⁻¹.

As for `O=c1oc(C(F)(F)C(F)(F)F)nc2ccccc12`, the Ki amounted to 100 nM.

With `COc1cc(C)c2c(=O)oc(NC(C)C)nc2c1`, the koff came out at 0.000794 s⁻¹ and the kon turned out to be 20900 M⁻¹ s⁻¹.
